Measurements as given in ChEMBL document CHEMBL1201862, “PubChem BioAssay data set” (2004).
Activity calls are given as the source filed them.

How the values were obtained:
[1] = target: T1, Rac GTPase-activating protein 1 (Homo sapiens, UniProt Q9H0H5); assay: blockers of MgcRacGAP-driven Rac1 GTP hydrolysis – biochemical, ADP Hunter fluorescence, primary and confirmatory, confirmation (AID 624330); format: functional
T1 sequence (Q9H0H5 whole entry): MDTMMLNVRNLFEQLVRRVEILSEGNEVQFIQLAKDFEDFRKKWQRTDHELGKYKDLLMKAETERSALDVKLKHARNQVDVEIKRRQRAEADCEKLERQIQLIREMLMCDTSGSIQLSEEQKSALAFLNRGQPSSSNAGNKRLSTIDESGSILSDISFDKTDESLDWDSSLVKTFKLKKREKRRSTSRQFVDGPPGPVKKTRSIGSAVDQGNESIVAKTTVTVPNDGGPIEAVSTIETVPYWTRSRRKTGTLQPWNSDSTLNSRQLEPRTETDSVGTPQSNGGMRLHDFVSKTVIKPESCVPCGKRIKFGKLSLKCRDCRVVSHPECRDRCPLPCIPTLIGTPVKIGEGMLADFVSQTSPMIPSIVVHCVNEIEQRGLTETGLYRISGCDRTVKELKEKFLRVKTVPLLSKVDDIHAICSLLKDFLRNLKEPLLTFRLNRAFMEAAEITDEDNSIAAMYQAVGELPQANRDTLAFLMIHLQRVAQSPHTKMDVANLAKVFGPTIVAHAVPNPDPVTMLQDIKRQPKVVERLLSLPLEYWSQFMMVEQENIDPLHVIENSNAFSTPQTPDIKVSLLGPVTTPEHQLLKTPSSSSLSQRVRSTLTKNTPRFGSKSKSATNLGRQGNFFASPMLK

Large T antigen = Large T antigen (Simian virus 40, UniProt P03070); format: functional, Betapolyomavirus macacae;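 further: Confirmatory-stage PubChem screen for compounds that inhibit SV40 T antigen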
Large T antigen, sequence (P03070 whole entry): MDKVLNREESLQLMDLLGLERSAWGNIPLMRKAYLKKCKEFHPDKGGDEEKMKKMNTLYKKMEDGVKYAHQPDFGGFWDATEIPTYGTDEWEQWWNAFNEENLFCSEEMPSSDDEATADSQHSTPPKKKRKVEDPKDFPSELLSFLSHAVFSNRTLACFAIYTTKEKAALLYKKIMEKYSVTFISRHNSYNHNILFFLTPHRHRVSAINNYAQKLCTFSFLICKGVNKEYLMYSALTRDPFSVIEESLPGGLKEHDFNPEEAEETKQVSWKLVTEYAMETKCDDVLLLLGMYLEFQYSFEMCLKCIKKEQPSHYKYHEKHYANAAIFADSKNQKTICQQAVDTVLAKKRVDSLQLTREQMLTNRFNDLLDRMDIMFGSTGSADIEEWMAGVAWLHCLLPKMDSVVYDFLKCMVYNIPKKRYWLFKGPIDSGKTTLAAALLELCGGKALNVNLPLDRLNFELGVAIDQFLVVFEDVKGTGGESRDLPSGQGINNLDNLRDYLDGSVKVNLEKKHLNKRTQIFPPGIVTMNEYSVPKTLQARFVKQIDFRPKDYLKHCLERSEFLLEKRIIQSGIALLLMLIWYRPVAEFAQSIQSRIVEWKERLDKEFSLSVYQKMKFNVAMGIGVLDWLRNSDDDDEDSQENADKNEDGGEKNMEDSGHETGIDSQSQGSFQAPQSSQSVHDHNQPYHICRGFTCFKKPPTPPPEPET

H9c2 = assay: cells; format: functional, cell-based; settings: Rattus norvegicus, H9c2, Myocardium;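 further: confirmatory concentration-response retest of ultra-high-throughput screening hits for modulation of myocardial damage; cell death induced by hydrogen peroxide oxidative stress; compound pretreatment for 60 min then peroxide exposure for 2 h; potency is for protecting the cells against peroxide damage rather than for killing them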
Streptococcus = assay: GAS UMAA2166 growth inhibition – luminescence, BacTiterGlo, counter-screen for streptokinase expression inhibitor project, dose response (AID 1915); format: functional, organism-based;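 further: potency for reduction of bacterial viability or growth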
[2] = tested on: Streptococcus sp. 'group A'; assay: Streptococcus pyogenes SK(-)GAS viability under kanamycin – luminescence, BacTiterGlo, confirmation, counter-screen for streptokinase expression inhibitor project, dose response (AID 1900); format: functional, organism-based
Streptokinase A = target: T2, Streptokinase A (Streptococcus pyogenes serotype M1, UniProt P10520); assay: viability-normalized secreted streptokinase activity reduction – plasminogen activation absorbance, OD405, dose response (AID 1914); format: functional, Streptococcus pyogenes M1 GAS;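 further: secreted streptokinase activity via plasminogen activation per viability signal from cell pellet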
T2 sequence (P10520 whole entry): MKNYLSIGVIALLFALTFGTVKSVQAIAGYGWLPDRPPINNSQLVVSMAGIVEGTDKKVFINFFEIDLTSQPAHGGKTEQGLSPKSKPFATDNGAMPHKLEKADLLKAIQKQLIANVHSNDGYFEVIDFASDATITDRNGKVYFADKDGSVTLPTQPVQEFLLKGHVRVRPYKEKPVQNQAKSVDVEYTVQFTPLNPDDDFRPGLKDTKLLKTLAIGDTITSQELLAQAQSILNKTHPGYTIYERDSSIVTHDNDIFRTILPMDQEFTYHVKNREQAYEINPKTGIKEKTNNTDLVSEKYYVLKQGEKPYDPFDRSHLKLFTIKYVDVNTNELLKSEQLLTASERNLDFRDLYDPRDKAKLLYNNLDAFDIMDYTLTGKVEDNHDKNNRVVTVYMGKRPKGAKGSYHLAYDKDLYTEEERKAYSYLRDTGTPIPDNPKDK

[3] = viability of uninfected HEp-2 cells – cell-based, HTS, cytotoxicity control for RSV inhibitor project, dose response (AID 2410); format: functional; settings: human respiratory syncytial virus
BJ [4] = assay: BJ-TERT-LT-ST fibroblast viability loss – cell-based, RAS-independent, luminescence, dose response (AID 1935); format: functional; settings: Homo sapiens;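 further: BJ fibroblasts immortalized with TERT plus LT and ST oncogenes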
BJ [5] = assay: cells; format: functional, cell-based; settings: Homo sapiens
[6] = DRD fibroblast viability loss – cell-based, non-viral oncogenic, luminescence, dose response (AID 1934); format: functional; settings: Homo sapiens
BJ [7] = assay: BJ-TERT fibroblast viability loss – cell-based, RAS-independent, luminescence, dose response (AID 1933); format: functional; settings: Homo sapiens
Fatty acid synthase = Fatty acid synthase (Homo sapiens, UniProt P49327); assay: inhibition of human FAS-TE enzyme activity – biochemical, kinetic fluorescence intensity, dose response (AID 624326); format: functional;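 further: rate of fluorescence rise from hydrolysis of a fluorogenic O-methyl fluorescein ester substrate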
Fatty acid synthase, sequence (P49327 whole entry): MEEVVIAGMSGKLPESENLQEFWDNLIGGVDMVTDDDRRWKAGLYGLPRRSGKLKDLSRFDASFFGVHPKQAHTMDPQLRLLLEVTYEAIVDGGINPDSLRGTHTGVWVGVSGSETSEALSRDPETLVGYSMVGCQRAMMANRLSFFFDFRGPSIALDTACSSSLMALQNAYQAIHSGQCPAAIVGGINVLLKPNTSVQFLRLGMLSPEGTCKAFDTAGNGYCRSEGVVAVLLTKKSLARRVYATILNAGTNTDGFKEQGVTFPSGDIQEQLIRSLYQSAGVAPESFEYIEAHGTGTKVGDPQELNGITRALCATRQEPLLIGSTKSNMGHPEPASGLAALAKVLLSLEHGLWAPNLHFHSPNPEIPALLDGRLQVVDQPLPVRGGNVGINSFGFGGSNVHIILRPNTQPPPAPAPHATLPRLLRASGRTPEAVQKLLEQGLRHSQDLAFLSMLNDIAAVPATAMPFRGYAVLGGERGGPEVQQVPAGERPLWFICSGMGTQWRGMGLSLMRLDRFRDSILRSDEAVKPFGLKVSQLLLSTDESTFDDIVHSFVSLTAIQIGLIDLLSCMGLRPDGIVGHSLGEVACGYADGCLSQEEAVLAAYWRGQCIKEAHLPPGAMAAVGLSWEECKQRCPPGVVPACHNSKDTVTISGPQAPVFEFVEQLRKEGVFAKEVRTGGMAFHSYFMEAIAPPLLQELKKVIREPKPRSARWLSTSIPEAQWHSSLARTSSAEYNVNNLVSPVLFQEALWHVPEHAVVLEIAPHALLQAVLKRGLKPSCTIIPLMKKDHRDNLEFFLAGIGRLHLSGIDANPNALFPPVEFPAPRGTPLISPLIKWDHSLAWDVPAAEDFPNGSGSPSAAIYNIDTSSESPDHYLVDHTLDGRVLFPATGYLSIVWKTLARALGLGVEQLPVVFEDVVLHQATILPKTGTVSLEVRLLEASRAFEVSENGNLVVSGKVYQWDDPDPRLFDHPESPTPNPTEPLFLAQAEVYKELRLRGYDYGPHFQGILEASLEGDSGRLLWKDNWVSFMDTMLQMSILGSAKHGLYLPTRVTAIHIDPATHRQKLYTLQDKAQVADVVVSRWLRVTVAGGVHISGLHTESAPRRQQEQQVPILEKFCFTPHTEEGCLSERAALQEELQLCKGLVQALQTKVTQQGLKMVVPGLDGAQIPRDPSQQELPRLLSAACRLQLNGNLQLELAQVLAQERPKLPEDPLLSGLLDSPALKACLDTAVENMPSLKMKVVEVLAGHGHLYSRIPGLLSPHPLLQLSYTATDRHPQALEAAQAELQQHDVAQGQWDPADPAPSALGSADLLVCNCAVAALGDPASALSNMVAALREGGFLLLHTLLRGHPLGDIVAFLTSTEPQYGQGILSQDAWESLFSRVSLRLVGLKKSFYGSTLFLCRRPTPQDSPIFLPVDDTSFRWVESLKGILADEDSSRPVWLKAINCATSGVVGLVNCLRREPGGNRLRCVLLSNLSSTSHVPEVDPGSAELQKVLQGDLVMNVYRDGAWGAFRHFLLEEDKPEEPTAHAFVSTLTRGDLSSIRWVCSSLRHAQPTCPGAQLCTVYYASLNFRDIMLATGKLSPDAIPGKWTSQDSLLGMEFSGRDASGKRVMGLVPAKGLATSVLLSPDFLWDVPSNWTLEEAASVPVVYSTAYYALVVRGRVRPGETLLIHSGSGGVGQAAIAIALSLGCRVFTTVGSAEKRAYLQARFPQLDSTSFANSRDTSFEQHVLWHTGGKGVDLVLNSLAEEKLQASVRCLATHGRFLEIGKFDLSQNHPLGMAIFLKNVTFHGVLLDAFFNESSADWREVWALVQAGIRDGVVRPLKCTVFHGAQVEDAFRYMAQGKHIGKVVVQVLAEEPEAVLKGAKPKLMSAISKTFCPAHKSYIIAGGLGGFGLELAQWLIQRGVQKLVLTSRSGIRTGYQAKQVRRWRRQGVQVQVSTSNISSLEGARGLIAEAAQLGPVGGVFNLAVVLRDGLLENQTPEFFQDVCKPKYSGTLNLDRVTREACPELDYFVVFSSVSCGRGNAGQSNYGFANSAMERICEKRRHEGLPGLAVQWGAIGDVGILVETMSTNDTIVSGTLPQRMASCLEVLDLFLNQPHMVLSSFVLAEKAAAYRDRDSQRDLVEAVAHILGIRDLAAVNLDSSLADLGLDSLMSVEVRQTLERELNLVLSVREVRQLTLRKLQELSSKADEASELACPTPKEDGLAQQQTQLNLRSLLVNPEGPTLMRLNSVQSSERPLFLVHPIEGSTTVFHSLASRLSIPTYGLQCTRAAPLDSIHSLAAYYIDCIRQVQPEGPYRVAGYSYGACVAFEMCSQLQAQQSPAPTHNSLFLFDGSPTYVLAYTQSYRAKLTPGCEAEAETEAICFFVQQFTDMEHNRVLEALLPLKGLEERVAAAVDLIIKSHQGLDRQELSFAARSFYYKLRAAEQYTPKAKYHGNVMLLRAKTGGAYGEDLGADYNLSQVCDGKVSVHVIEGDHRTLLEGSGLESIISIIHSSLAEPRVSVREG

Protein RecA = target: T3, Protein RecA (Mycobacterium tuberculosis, UniProt P9WHJ3); assay: Fluorescence Cell-Free Homogeneous Dose Retest to Identify Inhibitors of RecA-Intein Splicing Activity. [Related pubchem assays (depositor defined):AID2097, AID2223, AID489010, AID492950]; format: functional
T3 sequence (P9WHJ3 whole entry): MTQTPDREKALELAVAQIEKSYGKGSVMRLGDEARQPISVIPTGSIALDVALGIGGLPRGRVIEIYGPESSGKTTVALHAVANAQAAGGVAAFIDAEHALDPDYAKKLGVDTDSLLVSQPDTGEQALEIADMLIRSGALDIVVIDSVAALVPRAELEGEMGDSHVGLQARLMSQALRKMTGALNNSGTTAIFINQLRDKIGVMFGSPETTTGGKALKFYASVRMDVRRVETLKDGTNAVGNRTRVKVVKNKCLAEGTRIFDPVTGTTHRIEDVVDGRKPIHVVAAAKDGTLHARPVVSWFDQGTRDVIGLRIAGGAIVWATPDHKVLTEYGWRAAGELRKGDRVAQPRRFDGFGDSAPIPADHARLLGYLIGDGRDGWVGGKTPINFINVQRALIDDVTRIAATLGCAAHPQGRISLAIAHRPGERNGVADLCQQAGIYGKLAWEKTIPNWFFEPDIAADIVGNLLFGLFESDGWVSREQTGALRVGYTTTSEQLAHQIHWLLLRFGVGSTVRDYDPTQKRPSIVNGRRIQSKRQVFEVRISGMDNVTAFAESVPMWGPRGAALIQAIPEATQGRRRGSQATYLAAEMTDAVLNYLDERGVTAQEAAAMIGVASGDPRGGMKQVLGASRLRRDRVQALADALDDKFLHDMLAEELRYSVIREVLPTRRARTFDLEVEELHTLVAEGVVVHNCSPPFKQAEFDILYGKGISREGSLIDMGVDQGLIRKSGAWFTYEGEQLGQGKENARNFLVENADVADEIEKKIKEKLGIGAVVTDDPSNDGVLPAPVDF

[8] = target: T4, Replicative DNA helicase DnaB (Mycobacterium tuberculosis, UniProt P9WMR3); assay: DnaB intein splicing inhibitors, dose response, biochemical, cell-free fluorescence (AID 449749); format: functional
T4 sequence (P9WMR3 whole entry): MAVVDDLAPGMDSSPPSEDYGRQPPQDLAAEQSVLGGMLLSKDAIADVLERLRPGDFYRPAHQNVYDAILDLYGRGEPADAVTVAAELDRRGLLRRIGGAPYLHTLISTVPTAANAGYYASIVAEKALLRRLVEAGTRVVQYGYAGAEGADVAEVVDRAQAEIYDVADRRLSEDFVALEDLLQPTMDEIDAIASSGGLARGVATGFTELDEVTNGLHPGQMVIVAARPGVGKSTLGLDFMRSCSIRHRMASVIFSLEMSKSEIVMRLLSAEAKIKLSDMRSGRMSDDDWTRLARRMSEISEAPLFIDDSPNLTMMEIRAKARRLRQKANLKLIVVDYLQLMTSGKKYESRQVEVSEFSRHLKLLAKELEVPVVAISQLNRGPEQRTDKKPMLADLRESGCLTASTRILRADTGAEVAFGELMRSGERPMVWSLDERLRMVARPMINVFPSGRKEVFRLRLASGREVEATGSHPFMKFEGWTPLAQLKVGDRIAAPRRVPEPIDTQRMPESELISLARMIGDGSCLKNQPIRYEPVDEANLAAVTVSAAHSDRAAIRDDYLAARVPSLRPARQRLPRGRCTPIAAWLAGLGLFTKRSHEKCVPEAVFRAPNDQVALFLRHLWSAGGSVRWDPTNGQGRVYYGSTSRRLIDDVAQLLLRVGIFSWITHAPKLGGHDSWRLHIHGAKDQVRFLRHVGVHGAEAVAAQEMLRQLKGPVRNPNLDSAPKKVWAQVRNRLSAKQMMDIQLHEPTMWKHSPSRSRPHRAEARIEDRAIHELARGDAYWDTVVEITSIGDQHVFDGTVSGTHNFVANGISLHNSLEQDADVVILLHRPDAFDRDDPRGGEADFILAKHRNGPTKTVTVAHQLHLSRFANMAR

[9] = intracellular Trypanosoma cruzi inhibitors in host cells – cell-based, plate reader, cherry-pick samples, set 3, dose response (AID 651818); format: functional;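 further: compounds incubated with infected cells for about four days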
[10] = P. falciparum Dd2 growth inhibitors, dose response, SYBR Green, cherry-picked samples (AID 1159567); format: functional, cell-based
[11] = target: FAD-linked sulfhydryl oxidase ALR (Homo sapiens, UniProt P55789); assay: ALR-catalysed DTT oxidation blockers – biochemical, H2O2 detection, luminescence, cherry-pick, dose response (AID 493248)
FAD-linked sulfhydryl oxidase ALR, sequence (P55789 whole entry): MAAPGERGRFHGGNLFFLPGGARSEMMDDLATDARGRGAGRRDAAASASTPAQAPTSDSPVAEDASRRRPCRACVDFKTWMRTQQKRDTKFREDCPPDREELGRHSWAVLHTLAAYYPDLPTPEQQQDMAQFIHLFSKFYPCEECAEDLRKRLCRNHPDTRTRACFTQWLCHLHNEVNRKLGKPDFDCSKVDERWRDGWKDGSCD

O=c1cc(-c2ccc(O)c(O)c2)oc2cc(O)c(C3OC(CO)C(O)C(O)C3O)c(O)c12 (stereo unspecified)
IC50 [1]: 42.9 µM (active) | IC50 (Large T antigen): 5.23 µM (active)

O=C(NCc1ccco1)c1cc(-c2cccnc2)nc2ccc(Cl)cc12
IC50 (H9c2): > 79 µM (inactive)

N#Cc1c(-c2c(Cl)cccc2Cl)noc1/C=C/Nc1ccc(C(=O)O)cc1
IC50 (cells): 32.6 µM (active) | EC50 (Streptococcus): 17.5 µM (active) | EC50 [2]: 1.95 µM (active) | EC50 (Streptokinase A): > 150 µM (not active)

c1ccc(-c2nn3c(Cn4nnc5ccccc54)nnc3s2)cc1
IC50 (cells): > 25 µM (active)

COc1ccc2nc(NC(=O)c3ccccc3[N+](=O)[O-])sc2c1
IC50 (cells): 9.33 µM (active) | CC50 [3]: 45.6 µM (active)

CCCCCn1c(=O)c(C(=O)NCc2ccccn2)c(O)c2ccccc21
IC50 (H9c2): 5.88 µM (active)

CCO/C(O)=C1/C(C)=NC(SC)=C(C#N)C1CC(C)C (stereo unspecified)
EC50 (BJ [4]): 6.28 µM (inconclusive) | EC50 (BJ [5]): 35 µM (inconclusive) | EC50 [6]: 2.97 µM (active) | EC50 (BJ [7]): 7.78 µM (active)

COc1ccc(C(C(=O)NC2CCCCC2)N(C(=O)CCl)c2ccccc2Cl)cc1 (stereo unspecified)
EC50 (BJ [4]): > 150 µM (not active) | EC50 (BJ [5]): > 150 µM (not active) | EC50 [6]: 4.62 µM (inconclusive) | EC50 (BJ [7]): 0.566 µM (inconclusive)

Cc1nc(N2CCN(c3ccccn3)CC2)c2c(C)c(C(=O)Nc3ccc(F)cc3)sc2n1
IC50 (H9c2): > 79 µM (inactive)

COc1cc(C(=O)NCCCNc2nc3cc(C)cc(C)c3cc2C#N)cc(OC)c1OC
IC50 (H9c2): > 79 µM (inactive)

Cc1cc(C)c(S(=O)(=O)N2CCN(C(=O)c3cc(O)nc4ccccc34)CC2)c(C)c1
IC50 (H9c2): > 79 µM (inactive)

CC(C)(C)OC(=O)NCCCC[C@H](NC(=O)c1[nH]cnc1C(=O)NCC(=O)OCc1ccccc1)C(=O)OC(C)(C)C
IC50 (Fatty acid synthase): 0.16 µM (active)

COc1ccc(C(=O)Nc2ccc(O)c3ccccc23)cc1
IC50 (Large T antigen): 30.8 µM (active) | EC50 (Protein RecA): 0.0744 µM (active) | AC50 [8]: 1.22 µM (active)

CCC(Oc1ccccc1)C(=O)Nc1ccccc1C(=O)N1CCCCC1 (stereo unspecified)
IC50 (H9c2): 23.8 µM (active)

COc1cc(NC(=O)c2ccc(-c3cn[nH]c3)c3ccoc23)cc(OC)c1OC
IC50 (H9c2): > 79 µM (inactive)

C[C@H]1CN([C@@H](C)CO)C(=O)c2cc(NS(=O)(=O)c3ccccc3)ccc2O[C@H]1CN(C)Cc1ccc(Cl)c(Cl)c1
AC50 [9]: 5.12 µM (active)

C[C@@H]1CN([C@H](C)CO)C(=O)Cc2cc(NC(=O)Cc3cn(C)c4ccccc34)ccc2O[C@H]1CN(C)Cc1ccc(Cl)c(Cl)c1
AC50 [9]: 3.78 µM (active)

C[C@H](CO)N1C[C@H](C)[C@H](CN(C)Cc2ccc(C(F)(F)F)cc2)Oc2ccc(NC(=O)Nc3ccc4c(c3)OCO4)cc2CC1=O
AC50 [9]: 5.85 µM (active)

C[C@@H]1CN([C@H](C)CO)C(=O)Cc2cc(NC(=O)Nc3ccc(C(F)(F)F)cc3)ccc2O[C@@H]1CN(C)S(=O)(=O)c1ccc(F)cc1
AC50 [9]: 7.08 µM (active)

C[C@@H]1CN([C@H](C)CO)C(=O)c2cccc(NC(=O)NC3CCCCC3)c2O[C@H]1CN(C)Cc1ccc(C(F)(F)F)cc1
AC50 [9]: 1.86 µM (active)

C[C@@H]1CN([C@H](C)CO)C(=O)Cc2cc(NC(=O)Nc3ccc4c(c3)OCO4)ccc2O[C@@H]1CN(C)Cc1ccc(Cl)c(Cl)c1
AC50 [9]: 3.71 µM (active)

C[C@H](CO)N1C[C@H](C)[C@H](CN(C)CC2CCCCC2)Oc2c(NC(=O)c3nc4ccccc4s3)cccc2C1=O
AC50 [9]: 3.31 µM (active)

C[C@@H]1CN([C@@H](C)CO)C(=O)Cc2cc(NC(=O)Nc3ccc(C(F)(F)F)cc3)ccc2O[C@@H]1CN(C)S(=O)(=O)c1ccccc1
AC50 [9]: 3.88 µM (active)

CO[C@@H]1CN(C)C(=O)c2ccc(NC(=O)Nc3ccc(F)cc3)cc2OC[C@@H](C)N(C(=O)c2ccc(F)cc2)C[C@H]1C
AC50 [10]: 8.03 µM (active)

CCN(CC)S(=O)(=O)c1ccc(N/N=C/c2ccc(O)cc2)nc1
IC50 [1]: 31.5 µM (active) | IC50 (Large T antigen): 11.5 µM (active)

COc1cc(/C=N\NC(=O)CNC(=O)c2cccc([N+](=O)[O-])c2)ccc1O
IC50 [1]: 16.5 µM (active) | IC50 (Large T antigen): 3.75 µM (active) | AC50 [11]: 2.41 µM (active)

COc1ccc(C(=O)NCC(=O)N/N=C/c2c(C)[nH]c3ccccc23)cc1OC
IC50 (cells): 7.07 µM (active)

CC(=N)/C(C#N)=C(/O)COc1ncnc2ccccc12
IC50 (cells): 1.77 µM (active)

O=C(Nc1ccc(F)cc1)N1CC(=O)N2[C@H](C1)[C@@H](c1ccc(C#Cc3ccc(F)cc3)cc1)[C@@H]2CO
AC50 [10]: 4.49 µM (active)

CO[C@H]1CN(C)C(=O)c2ccc(NS(=O)(=O)CC(F)(F)F)cc2OC[C@@H](C)N(Cc2nccs2)C[C@H]1C
AC50 [10]: > 39 µM (inactive)
